Experimental data as given in the NIST ThermoML archive (doi:10.1021/je4004806).

Experiment: xn = mol fraction of the nth substance listed
Conditions: 101 kPa, Liquid; for viscosity: Capillary tube (Ostwald / Ubbelohde) method; for mass density: Vibrating tube method

CCCCCCCC [octane] + CCCCO
Conditions | mass density [kg/m3] | viscosity [mPa·s]
293.15 K, x1 = 0.0967 | 792 | 2.243
293.15 K, x1 = 0.1999 | 775.92 | 1.722
293.15 K, x1 = 0.3022 | 761.86 | 1.363
293.15 K, x1 = 0.4064 | 749.45 | 1.078
293.15 K, x1 = 0.4995 | 739.67 | 0.903
293.15 K, x1 = 0.6004 | 730.23 | 0.766
293.15 K, x1 = 0.7002 | 721.95 | 0.672
293.15 K, x1 = 0.7999 | 714.61 | 0.603
293.15 K, x1 = 0.8991 | 708.11 | 0.571
293.15 K, x1 = 1 | 702.54 | 0.545
298.15 K, x1 = 0.0967 | 788.1 | 1.983
298.15 K, x1 = 0.1999 | 771.93 | 1.537
298.15 K, x1 = 0.3022 | 757.83 | 1.223
298.15 K, x1 = 0.4064 | 745.37 | 0.974
298.15 K, x1 = 0.4995 | 735.56 | 0.826
298.15 K, x1 = 0.6004 | 726.12 | 0.709
298.15 K, x1 = 0.7002 | 717.8 | 0.626
298.15 K, x1 = 0.7999 | 710.5 | 0.565
298.15 K, x1 = 0.8991 | 704 | 0.537
298.15 K, x1 = 1 | 698.49 | 0.513
303.15 K, x1 = 0.0967 | 784.17 | 1.762
303.15 K, x1 = 0.1999 | 767.92 | 1.375
303.15 K, x1 = 0.3022 | 753.77 | 1.102
303.15 K, x1 = 0.4064 | 741.27 | 0.885
303.15 K, x1 = 0.4995 | 731.43 | 0.758
303.15 K, x1 = 0.6004 | 721.97 | 0.655
303.15 K, x1 = 0.7002 | 713.65 | 0.584
303.15 K, x1 = 0.7999 | 706.35 | 0.529
303.15 K, x1 = 0.8991 | 699.87 | 0.503
303.15 K, x1 = 1 | 694.44 | 0.485
308.15 K, x1 = 0.0967 | 780.22 | 1.577
308.15 K, x1 = 0.1999 | 763.9 | 1.232
308.15 K, x1 = 0.3022 | 749.68 | 0.996
308.15 K, x1 = 0.4064 | 737.13 | 0.809
308.15 K, x1 = 0.4995 | 727.27 | 0.698
308.15 K, x1 = 0.6004 | 717.79 | 0.609
308.15 K, x1 = 0.7002 | 709.47 | 0.546
308.15 K, x1 = 0.7999 | 702.18 | 0.497
308.15 K, x1 = 0.8991 | 695.72 | 0.473
308.15 K, x1 = 1 | 690.37 | 0.459
313.15 K, x1 = 0.0967 | 776.24 | 1.4
313.15 K, x1 = 0.1999 | 759.83 | 1.11
313.15 K, x1 = 0.3022 | 745.56 | 0.904
313.15 K, x1 = 0.4064 | 732.96 | 0.74
313.15 K, x1 = 0.4995 | 723.07 | 0.644
313.15 K, x1 = 0.6004 | 713.59 | 0.566
313.15 K, x1 = 0.7002 | 705.27 | 0.511
313.15 K, x1 = 0.7999 | 697.97 | 0.467
313.15 K, x1 = 0.8991 | 691.54 | 0.447
313.15 K, x1 = 1 | 686.29 | 0.433
318.15 K, x1 = 0.0967 | 772.22 | 1.258
318.15 K, x1 = 0.1999 | 755.73 | 1
318.15 K, x1 = 0.3022 | 741.39 | 0.821
318.15 K, x1 = 0.4064 | 728.75 | 0.679
318.15 K, x1 = 0.4995 | 718.84 | 0.595
318.15 K, x1 = 0.6004 | 709.35 | 0.527
318.15 K, x1 = 0.7002 | 701.03 | 0.479
318.15 K, x1 = 0.7999 | 693.72 | 0.44
318.15 K, x1 = 0.8991 | 687.33 | 0.42
318.15 K, x1 = 1 | 682.19 | 0.412
323.15 K, x1 = 0.0967 | 768.16 | 1.134
323.15 K, x1 = 0.1999 | 751.58 | 0.907
323.15 K, x1 = 0.3022 | 737.18 | 0.751
323.15 K, x1 = 0.4064 | 724.5 | 0.625
323.15 K, x1 = 0.4995 | 714.57 | 0.552
323.15 K, x1 = 0.6004 | 705.07 | 0.493
323.15 K, x1 = 0.7002 | 696.75 | 0.45
323.15 K, x1 = 0.7999 | 689.48 | 0.415
323.15 K, x1 = 0.8991 | 683.1 | 0.397
323.15 K, x1 = 1 | 678.08 | 0.392
